Data on two molecules can be found in ChEMBL document CHEMBL1147725, “Identification and biological characterization of 6-aryl-7-isopropylquinazolinones as novel TRPV1 antagonists that are effective in models of chronic pain” (J Med Chem, 2006).

By IC50 is commonly meant the concentration that gives 50% inhibition.

This test has as its target Transient receptor potential cation channel subfamily V member 1 (Homo sapiens, UniProt Q8NER1). The test can be described thus: Inhibition of calcium influx evoked by capsaicin in human TRPV1 expressing cells by fluorescence assay. The format is functional.

Chain of Transient receptor potential cation channel subfamily V member 1 (Q8NER1 whole entry): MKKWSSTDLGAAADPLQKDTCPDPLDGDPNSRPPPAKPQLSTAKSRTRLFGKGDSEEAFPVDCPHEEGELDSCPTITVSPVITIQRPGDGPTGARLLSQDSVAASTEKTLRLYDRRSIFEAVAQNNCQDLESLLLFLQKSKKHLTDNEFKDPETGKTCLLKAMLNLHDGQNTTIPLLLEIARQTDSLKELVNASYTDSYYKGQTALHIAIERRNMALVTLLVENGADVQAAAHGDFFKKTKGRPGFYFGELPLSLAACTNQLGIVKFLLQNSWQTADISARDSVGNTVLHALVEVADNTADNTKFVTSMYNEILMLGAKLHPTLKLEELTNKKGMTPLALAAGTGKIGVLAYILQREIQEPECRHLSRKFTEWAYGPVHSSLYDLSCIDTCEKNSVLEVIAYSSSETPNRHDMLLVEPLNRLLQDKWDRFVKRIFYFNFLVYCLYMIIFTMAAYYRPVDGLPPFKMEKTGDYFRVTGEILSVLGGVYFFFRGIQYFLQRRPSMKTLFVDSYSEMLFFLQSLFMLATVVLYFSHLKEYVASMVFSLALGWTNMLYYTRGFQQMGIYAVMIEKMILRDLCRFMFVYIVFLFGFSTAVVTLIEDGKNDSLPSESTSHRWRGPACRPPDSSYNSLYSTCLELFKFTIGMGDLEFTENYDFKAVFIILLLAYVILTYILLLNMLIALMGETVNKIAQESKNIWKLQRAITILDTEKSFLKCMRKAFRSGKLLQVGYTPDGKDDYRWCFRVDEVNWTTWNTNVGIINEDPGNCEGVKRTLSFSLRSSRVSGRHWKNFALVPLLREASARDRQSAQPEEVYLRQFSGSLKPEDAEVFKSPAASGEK

Take `COCCOc1cc(-c2cc3c(=O)[nH]c(C)nc3cc2C(C)C)ccc1Cl`: the IC50 came to 216 nM.

`Cc1nc(O)c2cc(-c3ccc(Cl)c(OCCO)c3)c(C(C)C)cc2n1`: the IC50 was 557 nM.
